According to US10300058B2, “Tyrosine kinase inhibitor and uses thereof” (Xuanzhu Pharma Co., Ltd., priority 2014, dated 2019):

How the values were obtained:
[1] = target: wild-type EGFR (WT EGFR) (Homo sapiens (Human), UniProt P00533); assay: Mobility Shift Assay, in vitro enzyme-inhibiting activity, wild-type EGFR; type: biochemical; settings: Km ATP
Procedure: (§1) 1. Preparation of Reagents
(§2) 2. Preparation of a Compound Solution
(§3) (1) To the second well of a 96-well plate, 5 μL 10 mM compound (dissolved in DMSO) was added, and 95 μL 100% DMSO was added to prepare 100 μL 0.5 mM compound.
(§4) (2) To other wells, 60 μL 100% DMSO was added. 20 μL compound from the second well was added to the third well, and 4-fold dilution was further performed to get 10 diluted concentrations.
(§5) (3) To the first well and the twelfth well of the 96-well plate, 100 μL 100% DMSO was separately added, and the two wells were used as control wells.
(§6) (4) 10 μL from each well of the 96-well plate was added to another 96-well plate, and 90 μL 1-fold kinase buffer was added.
(§7) (5) 5 μL from the 96-well plate was added to another 384-well plate, for example, transferred from A1 well of the 96-well plate to A1 and A2 wells of the 384-well plate, and transferred from A2 well of the 96-well plate to A3 and A4 wells of the 384-well plate, and so on.
(§8) To 384-well plate, 10 μL 2.5-fold enzyme solution was added, and incubated at room temperature for 10 min.
(§9) (5) Kinase reaction and stop
(§10) After incubation at 28° C. for a period of time (depending on kinase), 25 μL stop solution was added.
(§11) 4. Data on percent conversion was read by Caliper.
(§12) (1) Data on enzyme activity was obtained by Caliper program;
(§13) (2) Inhibition rate of enzyme activity was calculated from the data on enzyme activity by the following formula: Inhibition rate(%)=(maximal value−the measured value of a test compound)/(maximal value-minimal value)×100,
(§14) wherein, the maximal value represents the measured value of DMSO control; and the minimal value represents the measured value of blank control.
(§15) (3) Calculation of IC50 value by XLFit excel.

[2] = target: EGFR T790M (Homo sapiens (Human), UniProt P00533, T790M); assay: Mobility Shift Assay, in vitro enzyme-inhibiting activity, EGFR T790M; type: biochemical; settings: for IC50: Km ATP; for Selectivity (WT/T790M): ratio of IC50
Procedure: as §1, §2, §3, §4, §5, §6, §7, §8, §9, §10, §11, §12, §13, §14, §15

[3] = test system: H1975 cell (EGFR-T790M/L858R double mutation); assay: In vitro cytologic activity, Celltiter-Glo, H1975 cells; type: cell-based, human; settings: Table 10; for IC50: Homo sapiens, NCI-H1975, 72 h, 72 h, Celltiter-Glo, unit inferred; for Selectivity (A431/H1975): ratio of IC50
Procedure: (§16) 1.1 Preparation of Cell Suspension
(§17) Culture medium was removed from culture bottle;
(§18) PBS was added to wash the cells; • pancreatin was added for digestion, and the cells were collected by centrifugation; • the cells were resuspended in a culture medium containing 10% fetal bovine serum, counted and adjusted to a concentration of 2×10^4/mL or 3×10^4/mL (cell viability must be greater than 90%); • the cell suspension was added to a 96-well plate, at 100 μL for each well, i.e., 2000/well for H1975 cell; 3000/well for A431 cell; and • the cells were cultured at 37° C. in 5% CO2 incubator overnight.
(§19) Dilution of a compound in DMSO (or water for injection) • (1) The compound was 5-fold diluted with DMSO from 10 mM to 2 mM, and then 4-fold diluted from 2 mM, to get 10 concentrations; • High control (HC, control without compound inhibition): 0.5% DMSO; • Low control (LC, control with compound inhibition): 1000 nM.
(§20) i. To each well, 99 μL growth medium containing 10% FBS was added, and then 1 μL diluted compound was added, the total volume of the well was […], and the final concentration of the compound was measured.
(§21) The test plate was left at room temperature, and equilibrated for 30 min. 80 μL culture medium was discarded. 60 μL CTG reagent (Celltiter-Glo kit) was added, and shaked for 2 min in a fast shaker, and was placed at room temperature for 10 min. The values were read by Envision instrument.

[4] = test system: A431 cell (wild-type EGFR gene); assay: In vitro cytologic activity, Celltiter-Glo, A431 cells; type: cell-based; settings: Homo sapiens, A-431, 72 h, Table 10, unit inferred
Procedure: as §16, §17, §18, §19, §20, §21

[5] = target: EGFR (d746-750) (Homo sapiens (Human), UniProt P00533, DEL746-750); assay: Mobility Shift Assay, in vitro enzyme-inhibiting activity, EGFR (d746-750); type: biochemical; settings: Table 7; for IC50: Km ATP; for Selectivity WT/d746-750: ratio of IC50
Procedure: as §1, §2, §3, §4, §5, §6, §7, §8, §9, §10, §11, §12, §13, §14, §15

[6] = target: EGFR L858R (Homo sapiens (Human), UniProt P00533, L858R); assay: Mobility Shift Assay, in vitro enzyme-inhibiting activity, EGFR L858R; type: biochemical; settings: Table 7; for IC50: Km ATP; for Selectivity WT/L858R: ratio of IC50
Procedure: as §1, §2, §3, §4, §5, §6, §7, §8, §9, §10, §11, §12, §13, §14, §15

[7] = target: EGFR T790M-L858R (Homo sapiens (Human), UniProt P00533, L858R/T790M); assay: Mobility Shift Assay, in vitro enzyme-inhibiting activity, EGFR T790M-L858R; type: biochemical; settings: Table 7; for IC50: Km ATP; for Selectivity WT/T790M-L858R: ratio of IC50
Procedure: as §1, §2, §3, §4, §5, §6, §7, §8, §9, §10, §11, §12, §13, §14, §15

Sequence of EGFR (d746-750) (P00533 other isoform, or with tags, fused parts or gaps del 1-668/del 746-750 limits assumed): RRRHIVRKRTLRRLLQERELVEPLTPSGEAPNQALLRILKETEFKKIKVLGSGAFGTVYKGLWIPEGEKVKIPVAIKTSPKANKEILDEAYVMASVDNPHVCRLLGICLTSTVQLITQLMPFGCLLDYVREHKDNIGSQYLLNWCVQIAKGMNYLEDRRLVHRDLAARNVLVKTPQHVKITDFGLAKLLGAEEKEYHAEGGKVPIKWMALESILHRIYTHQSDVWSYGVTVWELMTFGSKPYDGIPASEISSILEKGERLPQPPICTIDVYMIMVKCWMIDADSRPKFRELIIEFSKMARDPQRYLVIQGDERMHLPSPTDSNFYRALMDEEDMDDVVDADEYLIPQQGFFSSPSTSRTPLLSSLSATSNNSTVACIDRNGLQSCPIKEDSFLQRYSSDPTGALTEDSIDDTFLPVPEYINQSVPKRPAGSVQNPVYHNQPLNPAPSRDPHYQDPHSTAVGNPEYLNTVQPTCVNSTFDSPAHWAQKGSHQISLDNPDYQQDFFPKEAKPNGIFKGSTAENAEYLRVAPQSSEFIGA
Sequence of wild-type EGFR (WT EGFR) (P00533 25-1210): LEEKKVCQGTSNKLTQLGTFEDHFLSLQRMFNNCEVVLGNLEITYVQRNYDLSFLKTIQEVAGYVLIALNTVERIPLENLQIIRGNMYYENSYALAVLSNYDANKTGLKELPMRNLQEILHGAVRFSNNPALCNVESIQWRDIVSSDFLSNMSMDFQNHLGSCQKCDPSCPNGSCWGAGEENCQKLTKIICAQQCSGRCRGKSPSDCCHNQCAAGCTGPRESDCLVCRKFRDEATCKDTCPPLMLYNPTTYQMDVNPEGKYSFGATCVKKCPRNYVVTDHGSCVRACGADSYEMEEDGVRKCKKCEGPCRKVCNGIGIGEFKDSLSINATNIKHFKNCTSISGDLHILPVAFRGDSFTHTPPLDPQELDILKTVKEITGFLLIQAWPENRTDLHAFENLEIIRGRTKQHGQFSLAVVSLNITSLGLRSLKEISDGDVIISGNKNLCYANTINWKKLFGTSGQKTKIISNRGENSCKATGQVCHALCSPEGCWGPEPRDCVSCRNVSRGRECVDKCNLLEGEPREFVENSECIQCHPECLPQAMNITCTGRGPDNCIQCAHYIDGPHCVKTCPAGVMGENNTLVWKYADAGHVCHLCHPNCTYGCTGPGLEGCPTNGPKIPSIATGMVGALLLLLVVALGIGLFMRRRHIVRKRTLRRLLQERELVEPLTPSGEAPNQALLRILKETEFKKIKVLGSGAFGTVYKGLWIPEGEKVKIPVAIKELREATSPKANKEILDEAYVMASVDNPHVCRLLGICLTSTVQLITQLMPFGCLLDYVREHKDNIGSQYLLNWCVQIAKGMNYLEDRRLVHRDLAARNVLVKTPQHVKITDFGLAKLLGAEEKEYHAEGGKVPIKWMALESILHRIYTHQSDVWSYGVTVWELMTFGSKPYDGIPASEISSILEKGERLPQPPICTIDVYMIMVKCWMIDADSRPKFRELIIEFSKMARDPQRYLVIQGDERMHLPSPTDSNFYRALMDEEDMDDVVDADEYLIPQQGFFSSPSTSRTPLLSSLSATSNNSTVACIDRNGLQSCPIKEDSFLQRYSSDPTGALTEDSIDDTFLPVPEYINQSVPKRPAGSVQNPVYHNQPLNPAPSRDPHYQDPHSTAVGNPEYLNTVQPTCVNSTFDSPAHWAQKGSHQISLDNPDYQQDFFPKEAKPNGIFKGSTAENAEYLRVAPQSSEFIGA
Sequence of EGFR T790M-L858R (P00533 25-1210 T790M/L858R): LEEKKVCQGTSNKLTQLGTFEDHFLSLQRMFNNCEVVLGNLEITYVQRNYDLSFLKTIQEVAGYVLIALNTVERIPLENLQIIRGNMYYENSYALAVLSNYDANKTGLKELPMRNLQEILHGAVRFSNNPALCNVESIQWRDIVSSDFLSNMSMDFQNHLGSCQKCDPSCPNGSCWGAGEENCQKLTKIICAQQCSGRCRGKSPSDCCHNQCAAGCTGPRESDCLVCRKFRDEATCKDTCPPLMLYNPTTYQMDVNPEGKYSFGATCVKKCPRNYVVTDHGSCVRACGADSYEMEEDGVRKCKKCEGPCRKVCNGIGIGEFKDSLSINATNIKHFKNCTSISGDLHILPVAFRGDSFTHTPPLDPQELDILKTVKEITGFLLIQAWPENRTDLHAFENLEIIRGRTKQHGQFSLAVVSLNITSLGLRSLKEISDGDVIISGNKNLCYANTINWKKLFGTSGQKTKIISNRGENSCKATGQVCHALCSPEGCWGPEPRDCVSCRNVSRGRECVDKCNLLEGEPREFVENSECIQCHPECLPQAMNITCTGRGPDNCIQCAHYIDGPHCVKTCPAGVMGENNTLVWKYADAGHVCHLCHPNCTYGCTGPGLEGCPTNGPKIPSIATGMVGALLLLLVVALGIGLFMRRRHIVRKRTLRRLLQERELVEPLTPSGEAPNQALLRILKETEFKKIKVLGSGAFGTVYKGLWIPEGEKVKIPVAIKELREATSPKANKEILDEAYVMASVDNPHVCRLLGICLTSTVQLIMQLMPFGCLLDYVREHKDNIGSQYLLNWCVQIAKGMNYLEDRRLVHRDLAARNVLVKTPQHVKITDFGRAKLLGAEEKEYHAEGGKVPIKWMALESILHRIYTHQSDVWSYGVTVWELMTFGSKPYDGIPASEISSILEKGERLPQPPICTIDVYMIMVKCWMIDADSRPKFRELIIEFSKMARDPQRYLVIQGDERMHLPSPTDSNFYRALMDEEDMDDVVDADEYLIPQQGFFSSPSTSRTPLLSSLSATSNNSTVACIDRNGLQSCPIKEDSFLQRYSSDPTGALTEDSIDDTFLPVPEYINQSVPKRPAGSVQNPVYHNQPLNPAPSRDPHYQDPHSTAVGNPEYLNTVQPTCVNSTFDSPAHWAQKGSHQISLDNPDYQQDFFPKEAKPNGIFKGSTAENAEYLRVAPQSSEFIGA
Sequence of EGFR T790M (P00533 25-1210 T790M): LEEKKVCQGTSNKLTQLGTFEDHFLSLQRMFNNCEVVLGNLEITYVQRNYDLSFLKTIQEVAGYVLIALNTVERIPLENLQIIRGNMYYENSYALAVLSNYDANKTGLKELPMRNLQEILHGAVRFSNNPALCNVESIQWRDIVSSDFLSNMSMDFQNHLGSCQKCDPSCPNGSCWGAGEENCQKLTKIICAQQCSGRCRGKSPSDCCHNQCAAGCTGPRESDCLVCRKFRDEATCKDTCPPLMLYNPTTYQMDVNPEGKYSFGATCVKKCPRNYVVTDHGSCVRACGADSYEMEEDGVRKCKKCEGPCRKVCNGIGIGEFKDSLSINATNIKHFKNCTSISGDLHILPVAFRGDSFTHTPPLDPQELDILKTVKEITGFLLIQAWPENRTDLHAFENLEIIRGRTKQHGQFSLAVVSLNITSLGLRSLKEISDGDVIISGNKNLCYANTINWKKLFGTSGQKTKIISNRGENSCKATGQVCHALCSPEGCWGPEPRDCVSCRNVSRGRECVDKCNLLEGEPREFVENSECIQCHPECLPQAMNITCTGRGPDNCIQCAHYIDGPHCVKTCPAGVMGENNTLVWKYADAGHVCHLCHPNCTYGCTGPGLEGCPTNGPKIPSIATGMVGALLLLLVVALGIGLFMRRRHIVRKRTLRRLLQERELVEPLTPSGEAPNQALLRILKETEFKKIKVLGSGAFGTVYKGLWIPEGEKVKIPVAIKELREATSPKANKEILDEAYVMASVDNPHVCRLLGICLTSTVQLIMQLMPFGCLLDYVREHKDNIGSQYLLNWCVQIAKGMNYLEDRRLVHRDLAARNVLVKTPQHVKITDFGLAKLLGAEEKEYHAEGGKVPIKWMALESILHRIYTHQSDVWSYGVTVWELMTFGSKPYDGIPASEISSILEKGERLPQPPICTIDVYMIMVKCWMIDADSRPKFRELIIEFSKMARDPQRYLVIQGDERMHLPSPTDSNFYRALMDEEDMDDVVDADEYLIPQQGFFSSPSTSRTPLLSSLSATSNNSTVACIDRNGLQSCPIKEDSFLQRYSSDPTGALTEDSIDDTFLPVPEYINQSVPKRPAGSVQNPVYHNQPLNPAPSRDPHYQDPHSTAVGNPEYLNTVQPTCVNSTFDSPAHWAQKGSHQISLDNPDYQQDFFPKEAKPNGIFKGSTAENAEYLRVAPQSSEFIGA

IC50 ([1]; Table 4, unit inferred) [nM]	IC50 ([2]; Table 4, unit inferred) [nM]	Selectivity (WT/T790M) ([2]; Table 4)	IC50 [3] [nM]	IC50 [4] [nM]	IC50 ([1]; Table 7) [nM]	IC50 [5] [nM]	Selectivity WT/d746-750 [5]	IC50 [6] [nM]	Selectivity WT/L858R [6]	IC50 [7] [nM]	Selectivity WT/T790M-L858R [7]	IC50 ([2]; Table 7) [nM]	Selectivity (WT/T790M) ([2]; Table 7)	Structure (SMILES)	Selectivity (A431/H1975) [3]
1370	16	85.6												C=CC(=O)Nc1cccc(Nc2nc(Nc3ccc4c(c3OC)CN(C(C)=O)CC4)ncc2C(F)(F)F)c1 [Compound 17, N-(3-((2-((2-acetyl-8-methoxy-1,2,3,4-tetrahydroisoquinoline-7-yl)amino)-5-(trifluoromethyl)pyrimidin-4-yl)amino)phenyl)acrylamide]	
			266	3600										C=CC(=O)Nc1cccc(Nc2nc(Nc3ccc(OC)c4c3CCN(C(C)=O)C4)ncc2C(F)(F)F)c1 [Compound 35, N-(3-((2-((2-acetyl-8-methoxy-1,2,3,4-tetrahydroisoquinoline-5-yl)amino)-5-(trifluoromethyl)pyrimidin-4-yl)amino)phenyl)acrylamide]	13.5
					181	28.3	6.4	28.2	6.4	4.06	44.6	2.7	67.2	C=CC(=O)Nc1cccc(Nc2nc(Nc3ccc(C4CCNC(=O)C4)cc3OC)ncc2C(F)(F)F)c1 (stereo not drawn) [Compound 22, N-(3-((2-((2-methoxy-4-(2-oxopiperidin-4-yl)phenyl)amino)-5-(trifluoromethyl)pyrimidin-4-yl)amino)phenyl)acrylamide]	
					560	92.7	6.0	119	4.7	12.6	44.5	9	62.2	C=CC(=O)Nc1cccc(Nc2nc(Nc3ccc(N4C[C@H]5CN(C(C)=O)C[C@H]5C4)cc3OC)ncc2C(F)(F)F)c1 [Compound 9-1, N-(3-((2-((4-((cis)-5-acetylhexahydropyrrolo[3,4-c]pyrrol-2(1H)-yl)-2-methoxyphenyl)amino)-5-(trifluoromethyl)pyrimidin-4-yl)amino)phenyl)acrylamide]	
159	3.6	44.2	430	2640										C=CC(=O)Nc1cccc(Nc2nc(Nc3ccc(OCCCS(C)(=O)=O)cc3OC)ncc2C(F)(F)F)c1 [Compound 43, N-(3-((2-((2-methoxy-4-(3-(methylsulfonyl)propoxy)phenyl)amino)-5-(trifluoromethyl)pyrimidin-4-yl)amino)phenyl)acrylamide]	6.1
					666	91.7	7.3	109	6.1	10.2	65.4	9.1	73.2	C=CC(=O)Nc1cccc(Nc2nc(Nc3ccc(C4CCN(C(=O)CC)CC4)cc3OC)ncc2C(F)(F)F)c1 [Compound 24, N-(3-((2-((2-methoxy-4-(1-propionylpiperidin-4-yl)phenyl)amino)-5-(trifluoromethyl)pyrimidin-4-yl)amino)phenyl)acrylamide]	

Structure (SMILES)	IC50 ([1]; Table 4, unit inferred) [nM]	IC50 ([2]; Table 4, unit inferred) [nM]	Selectivity (WT/T790M) ([2]; Table 4)	IC50 [3] [nM]	IC50 [4] [nM]	IC50 ([1]; Table 7) [nM]	IC50 [5] [nM]	Selectivity WT/d746-750 [5]	IC50 [6] [nM]	Selectivity WT/L858R [6]	IC50 [7] [nM]	Selectivity WT/T790M-L858R [7]	IC50 ([2]; Table 7) [nM]	Selectivity (WT/T790M) ([2]; Table 7)	Selectivity (A431/H1975) [3]
C=CC(=O)Nc1cccc(Nc2nc(Nc3ccc(N4CC5CCC(C4)N5C(C)=O)cc3OC)ncc2C(F)(F)F)c1 [Compound 7, N-(3-((2-((4-(8-acetyl-3,8-diazabicyclo[3.2.1]octan-3-yl)-2-methoxyphenyl)amino)-5-(trifluoromethyl)pyrimidin-4-yl)amino)phenyl)acrylamide]	332	6.2	53.5												
